Assay results as given in patent US5532227A, “Tetracyclines including non-antimicrobial chemically-modified tetracyclines inhibit excessive glycosylation of different types of collagen and other proteins during diabetes” (The Research Foundation of State University of New York, priority 1994, dated 1996).
Read-outs that look alike come from different tables or passages of the source.

Columns and labels:
[1] = tested on: streptozotocin-diabetic rats; assay: Blood glucose concentration of CMT-1-treated diabetic rats (Example I, FIG. 1); type: in vivo, Sprague-Dawley rat; conditions: oral gavage, 1-10 mg/day, 21 days
Description: Each value represents the mean ± S.E.M. for 4 rats per experimental group.
(§1) Twenty-four adult male Sprague-Dawley rats were weighed (body weight between 350-375 g) and injected through the tail vein with either 0.9% saline (nondiabetic controls, NDC) or with the same solution containing streptozotocin ([…] body weight) to induce diabetes. The diabetic rats were distributed into five experimental groups (n=4 rats per group) and daily administered by oral gavage either 0, 1, 2, 5 or 10 mg of CMT-1 (4-dedimethylaminotetracycline, a chemically-modified non-antimicrobial tetracycline) suspended in 2% carboxymethylcellulose (CMC) for 21 days. The non-diabetic control rats were gavaged with the carrier alone (2% CMC). Urine glucose levels were measured weekly with Tes-Tape (Eli Lily, Inc., Indianapolis, Ind.).
On the 21st day, the rats were weighed and anesthetized with halothane (Halocarbon Laboratories) before blood samples were collected for serum glucose (Sigma glucose oxidase kit, St. Louis, Mo.) and CMT-1 determinations. […]
(§2) The data were subject to statistical analysis. The standard error of the mean (S.E.M) was calculated from the standard deviation. The statistical significance between the groups were determined by analysis of variance while the significance of differences between groups was calculated by Tukey's test.

[2] = type: in vivo, Sprague-Dawley rat; conditions: for Serum CMT-1 Conc.: 21 days, mean of 4 rats ± S.E.M.; for serum concentration for individual rats: individual rats (data not shown), 30240 min
Protocol: as §1
On the 21st day, the rats were weighed and anesthetized with halothane (Halocarbon Laboratories) before blood samples were collected for serum glucose (Sigma glucose oxidase kit, St. Louis, Mo.) and CMT-1 determinations. The rats were then killed by exsanguination and the skin from the entire torso was dissected, weighed, and minced as described by Schneir et al., Diabetes 31:426 (1982).
The extraction and HPLC determination of the concentration of CMT-1 in rat serum was carried out as described by Yu et al., Biochem. Med. & Metabolic Biol. 47:10-20 (1992).
Serum CMT-1 concentration was assayed using the HPLC technique described by Yu et al., BioChem. Med. & Metabolic Biol. 47: 10-20 (1992). […].

skin collagen [3] = assay: Solubility of skin collagen in neutral salt and dilute acid, CMT-1 (Example I, FIGS. 2 and 3); type: in vivo, Sprague-Dawley rat; conditions: for increase of collagen solubility in neutral salt solutions / increase of collagen solubility in dilute acid solutions: vs untreated diabetics, 4° C.
Protocol: as §1
Skin samples were examined for collagen solubility using the techniques described previously (Golub et al., J. Periodont. Res. 12:402 (1977), Golub et al., Biochim. Biophys. Acta 534:73 (1978)) with some modifications. Except where indicated, all steps were carried out at 4° C.
Briefly, for the preparation of neutral salt-soluble collagen, minced rat skin was extracted with Tris-HCl buffer (pH 7.4) for 2 days followed by centrifugation at 11,000×g for 20 min. The pellet was subjected to an additional extraction for 18 hr and centrifuged as described above. Both supernatants were then combined and dialyzed exhaustively against 3% acetic acid for 2 days.
For the preparation of acid-soluble collagen, the pellet was further extracted with 3% acetic acid as described for the neutral salt extraction. The neutral salt and dilute acid extracts were dried with a rotatory evaporator at 60° C. under vacuum.
Following acid hydrolysis, the dried samples from the two extractions were used for neutral salt- and acid-soluble collagen determinations, while the pellet was used to determine the amount of insoluble collagen.
The amount of collagen in the three different skin fractions was also estimated. In particular, aliquots of the hydrolysates were repeatedly evaporated and reconstituted with distilled water to remove the hydrochloric acid. After removal of hydrochloric acid, the aliquots Were colorimetrically analyzed for hydroxyproline, an amino acid "marker" of collagen.
as §2

[4] = tested on: streptozotocin-diabetic rats; assay: Proteinuria: urine protein excretion in diabetic rats (Example III, FIG. 4); type: in vivo, rat; conditions: recent experiments, data not shown; Golub et al. 1992 cited
Protocol: Example III was carried out to determine the effect of tetracycline therapy on proteinuria, a parameter of renal damage, in diabetic rats.
(§3) Streptozotocin-diabetic rats were treated by the daily oral administration of 20 mg minocycline/rat/day over a 4-week period. At the end of the protocol, 24-hour urines were collected to measure protein excretion.

[5] = tested on: streptozotocin-diabetic rats; assay: Other signs of diabetes (hyperglycemia, glucosuria, polyuria) in diabetic rats (Example III); type: in vivo, rat
Protocol: as §3

serum protein = assay: Glycosylated serum proteins in diabetic rats (Example IV, FIG. 5); type: in vivo, Sprague-Dawley rat; conditions: 5 mg daily oral gavage, 21 days; effect p<0.05
Description: (Control vs. Diabetic p<0.01, Diabetic vs. Diabetic treated with Doxycycline p<0.05, Diabetic vs. Diabetic treated with CMT-1 (4-dedimethyiaminotetracycline) p<0.05).
(§4) Sixteen adult male sprague-Dawley rats, each weighing approximately 350 grams, were divided into four groups 0f four animals per group.

skin collagen [6] = assay: Glycosylation of skin collagen in diabetic rats, anthrone method (Example IV, FIG. 6); type: in vivo, Sprague-Dawley rat; conditions: 5 mg daily oral gavage, 21 days; effect p<0.05
Protocol: as §4
In addition, the entire skin was dissected from each rat. Samples containing 100mg of each skin were suspended in a Tris-HCl buffer containing 5mM CaCl2 and chromatographically-purified bacterial collagenase and incubated at 37° C. for 4 hours. Following incubation all samples were centrifugated at 35,000×G and the supernatants containing the skin collagen fragments were collected. The skin digest supernatants were analyzed for (1) carbohydrate-attached-to-collagen by the anthrone method, as described by Halhoul and Kleinberg ([…]) Anal. Biochem. 50: 337-343 and (2) total protein using the BioRad Assay, BioRad Chemical Division, Richmond, Calif.

skin collagen [7] = assay: Glycosylation of diabetic rat skin collagen (Example V, Table IV); type: in vivo, Sprague-Dawley rat; conditions: 5 mg daily oral gavage, 21 days
Protocol: All animals were weighed weekly.
The subcutaneous muscle layer was removed leaving essentially the dermis. The dermis (skin connective tissue) samples were minced, then homogenized in phosphate buffered saline (4° C.). Following centrifugation (at 9000 rpm, 4° C., 30 min.) of the homogenates, the supernatants were discarded. The pellets were repeatedly washed, then resuspended and extracted at 4° C. overnight in chloroform/methanol to remove lipids. The de-lipidized tissue samples were then washed in 100% methanol, then in 50% methanol. Following the methanol washes, the samples were washed with HEPES buffer (pH 7.4). The skin connective tissue samples (100 mg of each sample) were incubated at 37° C. (24 hours) with chromatographically-purified bacterial collagenase. After 24 hours the reaction mixture was centrifuged at 7000 rpm, room temperature for 30 minutes. Following centrifugation, the supernatants containing the digested collagen were collected. Aliquots of the supernatants were analyzed for glycosylated collagen using a modification of the Isolab Glyco-PROBE™ GSP assay kit. The assay is designed to measure glucose bound to protein which was then converted by Amadori rearrangement to fructosamine. For purposes of the present invention, the sample total protein was increased to compensate for low levels of glycosylated collagen compared to glycosylated serum proteins.

CC1(O)c2cccc(O)c2C(=O)C2=C(O)C3(O)C(=O)C(C(N)=O)=C(O)CC3CC21 (stereo not drawn) [CMT-1, 4-dedimethylaminotetracycline]
severity of hyperglycemia (blood glucose concentration) [1]: did not significantly alter the severity of hyperglycemia
Serum CMT-1 Conc. ([2]; 1 mg CMT/day oral): 0.75 ± 0.04 µg/mL
serum concentration for individual rats ([2]; 1 mg oral dose): 0.6 µg/mL
Serum CMT-1 Conc. ([2]; 2 mg CMT/day oral): 1.75 ± 0.05 µg/mL
Serum CMT-1 Conc. ([2]; 5 mg CMT/day oral): 3.90 ± 0.16 µg/mL
Serum CMT-1 Conc. ([2]; 10 mg CMT/day oral): 5.80 ± 0.25 µg/mL
serum concentration for individual rats ([2]; 10 mg oral dose): 6.5 µg/mL
increase of collagen solubility in neutral salt solutions (skin collagen [3]; 1 mg CMT/day oral): 10%
increase of collagen solubility in dilute acid solutions (skin collagen [3]; 1 mg/day oral): 18%
increase of collagen solubility in dilute acid solutions (skin collagen [3]; 10 mg/day oral): 174%
increase of collagen solubility in neutral salt solutions (skin collagen [3]; 10 mg/day oral): 91%
quality of collagen in the skin (inhibition of excess crosslinking) (skin collagen [3]; diabetic rats, oral): normalized
proteinuria in diabetic rats [4]: a reduction in proteinuria
other signs of diabetes including hyperglycemia, glucosuria and polyuria [5]: Neither treatment with minocycline nor CMT-1 reduced the other signs of diabetes
fructosamine attached to serum protein (glycosylated serum protein) (serum protein): returned both of these parameters of abnormal glycosylation to essentially normal levels
glycosylation of skin collagen (skin collagen [6]): returned both of these parameters of abnormal glycosylation to essentially normal levels
mM Fructosamine/mg protein (Mean ± SE) (skin collagen [7]; NDC 0.027, untreated diabetic 0.377): 0.123 ± 0.011 mM Fructosamine/mg protein
Reduction of glycosylation in treated diabetics (%) (skin collagen [7]; vs untreated diabetic control): 67.4%
